Experimental data from publication PMC12772150, “PIP2 corrects an endothelial Piezo1 channelopathy” (Proceedings of the National Academy of Sciences of the …, 2025).

Columns and labels:
[1] = target: T1, Piezo1 (Mus musculus, UniProt E2JF22); assay: single-channel patch clamp (cell-attached concentration-response with Yoda1; outside-out patches with PIP2 in pipette); assay type: cell-based
T1 construct: native channel in freshly isolated brain capillary endothelial cells

[2] = target: T2, Piezo1 (Mus musculus, UniProt E2JF22, R2482H); assay: cell-attached single-channel patch clamp, […] PIP2, no Yoda1 ([…] inhibition); assay type: cell-based
T2 construct: mutant channel in capillary endothelial cells of Piezo1EC-Mutant mice
T2 sequence (E2JF22 whole entry R2482H): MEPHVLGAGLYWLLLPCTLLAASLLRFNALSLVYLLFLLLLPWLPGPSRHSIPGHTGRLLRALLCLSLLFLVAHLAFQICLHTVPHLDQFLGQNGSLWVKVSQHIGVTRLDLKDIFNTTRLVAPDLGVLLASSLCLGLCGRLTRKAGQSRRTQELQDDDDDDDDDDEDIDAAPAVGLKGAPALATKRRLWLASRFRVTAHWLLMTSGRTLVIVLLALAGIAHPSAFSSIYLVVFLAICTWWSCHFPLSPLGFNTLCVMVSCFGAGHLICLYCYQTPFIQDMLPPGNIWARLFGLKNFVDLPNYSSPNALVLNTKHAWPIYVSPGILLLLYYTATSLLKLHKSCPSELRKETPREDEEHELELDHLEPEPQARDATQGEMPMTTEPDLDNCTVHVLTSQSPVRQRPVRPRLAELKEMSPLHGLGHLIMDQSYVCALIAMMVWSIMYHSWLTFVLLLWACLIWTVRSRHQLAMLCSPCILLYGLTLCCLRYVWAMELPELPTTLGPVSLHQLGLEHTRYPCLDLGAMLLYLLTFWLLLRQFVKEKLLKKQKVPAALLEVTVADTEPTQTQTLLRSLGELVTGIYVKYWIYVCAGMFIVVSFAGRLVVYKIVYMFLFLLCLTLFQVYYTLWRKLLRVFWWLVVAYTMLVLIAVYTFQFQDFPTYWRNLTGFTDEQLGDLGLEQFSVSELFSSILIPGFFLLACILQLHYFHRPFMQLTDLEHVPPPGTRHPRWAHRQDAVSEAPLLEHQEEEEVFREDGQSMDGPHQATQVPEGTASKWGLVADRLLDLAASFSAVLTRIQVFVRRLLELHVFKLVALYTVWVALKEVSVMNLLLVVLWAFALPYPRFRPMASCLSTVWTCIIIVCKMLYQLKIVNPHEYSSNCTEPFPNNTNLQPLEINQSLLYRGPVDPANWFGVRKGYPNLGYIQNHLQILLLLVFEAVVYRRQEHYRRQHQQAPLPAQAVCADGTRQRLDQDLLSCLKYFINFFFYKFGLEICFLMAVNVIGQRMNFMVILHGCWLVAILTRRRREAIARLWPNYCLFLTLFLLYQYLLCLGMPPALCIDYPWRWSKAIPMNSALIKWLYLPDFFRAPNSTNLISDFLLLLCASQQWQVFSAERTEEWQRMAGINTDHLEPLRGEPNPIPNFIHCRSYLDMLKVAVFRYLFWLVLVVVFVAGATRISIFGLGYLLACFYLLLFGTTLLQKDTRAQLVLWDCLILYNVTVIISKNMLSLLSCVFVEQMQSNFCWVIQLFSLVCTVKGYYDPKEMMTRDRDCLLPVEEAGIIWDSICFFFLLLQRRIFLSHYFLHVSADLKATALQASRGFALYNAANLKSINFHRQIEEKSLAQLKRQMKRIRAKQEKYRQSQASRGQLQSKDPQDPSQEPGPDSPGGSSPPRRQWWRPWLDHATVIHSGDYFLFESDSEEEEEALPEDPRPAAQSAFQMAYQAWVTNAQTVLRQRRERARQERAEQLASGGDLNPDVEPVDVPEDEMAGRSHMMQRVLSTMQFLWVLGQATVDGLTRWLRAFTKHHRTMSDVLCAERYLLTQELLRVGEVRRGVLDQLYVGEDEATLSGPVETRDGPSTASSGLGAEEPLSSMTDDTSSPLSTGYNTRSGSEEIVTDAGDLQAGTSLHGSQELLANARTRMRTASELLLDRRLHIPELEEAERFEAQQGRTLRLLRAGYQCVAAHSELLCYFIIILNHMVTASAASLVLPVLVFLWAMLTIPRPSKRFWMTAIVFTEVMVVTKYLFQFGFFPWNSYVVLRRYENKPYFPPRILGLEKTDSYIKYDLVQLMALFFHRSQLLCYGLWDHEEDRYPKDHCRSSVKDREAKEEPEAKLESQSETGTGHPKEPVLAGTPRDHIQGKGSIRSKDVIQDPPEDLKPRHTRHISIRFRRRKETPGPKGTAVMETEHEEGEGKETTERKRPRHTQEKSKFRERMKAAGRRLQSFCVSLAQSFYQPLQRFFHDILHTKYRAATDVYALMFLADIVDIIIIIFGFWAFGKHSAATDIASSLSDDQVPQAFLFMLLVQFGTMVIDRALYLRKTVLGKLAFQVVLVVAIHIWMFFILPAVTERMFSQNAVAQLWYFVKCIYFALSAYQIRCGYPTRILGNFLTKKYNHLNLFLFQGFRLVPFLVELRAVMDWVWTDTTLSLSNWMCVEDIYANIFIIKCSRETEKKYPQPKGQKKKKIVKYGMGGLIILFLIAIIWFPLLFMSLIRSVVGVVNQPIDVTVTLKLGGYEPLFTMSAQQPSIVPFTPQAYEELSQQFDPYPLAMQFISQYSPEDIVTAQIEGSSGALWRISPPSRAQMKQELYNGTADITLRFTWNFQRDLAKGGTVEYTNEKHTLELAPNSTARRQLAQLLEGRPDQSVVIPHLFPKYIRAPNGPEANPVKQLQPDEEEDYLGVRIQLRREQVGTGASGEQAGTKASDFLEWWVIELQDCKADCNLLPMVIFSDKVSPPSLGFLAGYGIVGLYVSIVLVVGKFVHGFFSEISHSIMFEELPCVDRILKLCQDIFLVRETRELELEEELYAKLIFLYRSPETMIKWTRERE

T1 sequence (E2JF22 whole entry): as the sequence (E2JF22 whole entry R2482H) above, with H2482R counted along it

IC50 [1]: ~300 nM | inhibition at 10 µM [2]: 50%
Structure (SMILES): CCCCCCCCCCCCCCCC(=O)OC[C@H](COP(=O)(O)O[C@@H]1[C@H](O)[C@H](O)[C@@H](OP(=O)(O)O)[C@H](OP(=O)(O)O)[C@H]1O)OC(=O)CCCCCCCCCCCCCCC [diC16-PIP2]
